In the NIST ThermoML archive (doi:10.1021/je400722h):

Test: xn = mol fraction of the nth substance listed
Conditions: 101 kPa, Liquid; for speed of sound: Pulse-echo method; for mass density: Vibrating tube method

Cc1ccccc1Cl [2-chlorotoluene] + C1CCOCC1
Conditions	mass density, 298.15 K [kg/m3]	mass density, 303.15 K [kg/m3]	speed of sound, 298.15 K [m/s]	speed of sound, 303.15 K [m/s]	speed of sound, 308.15 K [m/s]
x1 = 0.1156	906.77	901.67	1274.6	1252.7	1230.7
x1 = 0.1765	920.75	915.67	1277	1255.6	1233.7
x1 = 0.2342	933.65	928.57	1279.3	1258.1	1236.6
x1 = 0.2765	942.89	937.81	1280.9	1259.9	1238.6
x1 = 0.3305	954.43	949.36	1282.9	1262	1241
x1 = 0.3716	963.04	957.97	1284.4	1263.7	1242.9
x1 = 0.4235	973.69	968.63	1286.2	1265.7	1245
x1 = 0.4721	983.44	978.39	1287.9	1267.4	1247
x1 = 0.5216	993.16	988.12	1289.4	1269	1249
x1 = 0.5803	1004.4	999.4	1291.2	1271.1	1251.1
x1 = 0.6317	1014.1	1009.1	1292.6	1272.7	1252.8
x1 = 0.6796	1022.8	1017.9	1293.9	1274.1	1254.5
x1 = 0.7216	1030.4	1025.4	1294.8	1275.3	1255.7
x1 = 0.7737	1039.6	1034.7	1296	1276.7	1257.3
x1 = 0.8219	1047.9	1043	1296.8	1277.8	1258.6
x1 = 0.8753	1057	1052.1	1297.7	1279	1260
x1 = 0.9064	1062.2	1057.3	1298.1	1279.5	1260.7
x1 = 0.9325	1066.5	1061.6	1298.3	1279.9	1261.4
